The target in this test is T1, Human TRPC6 (Homo sapiens, UniProt Q9Y210).
T1 construct: expressed in transfected cells
T1 sequence (Q9Y210 1-931): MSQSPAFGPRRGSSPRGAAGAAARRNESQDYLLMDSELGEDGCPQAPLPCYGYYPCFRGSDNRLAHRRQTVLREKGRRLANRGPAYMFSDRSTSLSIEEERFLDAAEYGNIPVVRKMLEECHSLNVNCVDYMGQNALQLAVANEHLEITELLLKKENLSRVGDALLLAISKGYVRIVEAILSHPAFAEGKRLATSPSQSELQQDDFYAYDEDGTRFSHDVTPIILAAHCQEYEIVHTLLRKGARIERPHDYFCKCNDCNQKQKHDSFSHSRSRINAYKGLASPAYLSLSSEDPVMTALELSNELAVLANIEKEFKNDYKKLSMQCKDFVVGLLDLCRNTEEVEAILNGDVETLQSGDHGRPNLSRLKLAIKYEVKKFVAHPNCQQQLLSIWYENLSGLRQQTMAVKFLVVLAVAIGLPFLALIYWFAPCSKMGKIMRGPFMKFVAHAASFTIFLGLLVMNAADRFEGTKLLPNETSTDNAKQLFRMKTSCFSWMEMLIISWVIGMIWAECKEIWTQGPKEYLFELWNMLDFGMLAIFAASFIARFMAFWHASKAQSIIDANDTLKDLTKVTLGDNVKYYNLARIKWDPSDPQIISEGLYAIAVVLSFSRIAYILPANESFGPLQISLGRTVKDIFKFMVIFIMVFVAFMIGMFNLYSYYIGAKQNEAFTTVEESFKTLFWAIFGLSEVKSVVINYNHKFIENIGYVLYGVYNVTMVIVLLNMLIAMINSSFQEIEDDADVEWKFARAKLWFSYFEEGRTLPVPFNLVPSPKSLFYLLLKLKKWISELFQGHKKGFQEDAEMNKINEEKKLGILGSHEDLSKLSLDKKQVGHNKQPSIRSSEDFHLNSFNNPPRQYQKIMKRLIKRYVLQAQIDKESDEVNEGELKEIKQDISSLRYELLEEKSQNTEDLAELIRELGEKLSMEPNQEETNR
Briefly: Evaluation of TRPC6 channel inhibitory activity (1), FLIPR Calcium 5 Assay Kit, OAG stimulation (Compound Nos. 1-1293). Format: cell-based. Particulars: Human TRPC6 stably-expressing cells, OAG 30 μM, FLIPR Calcium 5 Assay Kit; read-out: Inhibitory activity (pIC50 class) (converted). In short, it runs like this:
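Calcium influx read by FLIPR fluorescence in cells stably expressing human TRPC6, dye-loaded 30 min. Compounds preincubated 20 min, then OAG stimulation at 30 μM final. Inhibition fitted by four-parameter logistic regression to give pIC50, reported as +/++/+++ categories.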
Consider `Cc1nn(CC(C)C)cc1Cc1cc(F)ccc1-c1ncc(CCN)cn1` [compound 1224, 2-[2-[4-fluoro-2-[[3-methyl-1-(2-methylpropyl)pyrazol-4-yl]methyl]phenyl]pyrimidin-5-yl]ethanamine], for which the IC50 was 10 to 1000 nM.
The same measure for `CC(C)c1cc(Oc2cc(C#N)ccc2-c2ncc(CN)cn2)n(C)n1` [compound 364, 4-[5-(aminomethyl)pyrimidin-2-yl]-3-(2-methyl-5-propan-2-ylpyrazol-3-yl)oxybenzonitrile]: less than 10 nM; for `CN(C)CCOc1ccc(-c2ccc(C#N)cc2Oc2cc(C3CC3)nn2C)nn1` [compound 784, 3-(5-cyclopropyl-2-methylpyrazol-3-yl)oxy-4-[6-[2-(dimethylamino)ethoxy]pyridazin-3-yl]benzonitrile]: greater than 1000 nM; for `Cc1cc(Oc2cc(C#N)ccc2-c2ncc(CNCC(N)=O)cn2)cc(-c2ccccn2)n1` [compound 841, 2-[[2-[4-cyano-2-(2-methyl-6-pyridin-2-ylpyridin-4-yl)oxyphenyl]pyrimidin-5-yl]methylamino]acetamide]: greater than 1000 nM.
The same measure for `Cn1nc(C2CC2)cc1Oc1cc(C#N)ccc1-c1ccc(CN)cn1` [compound 327, 4-[5-(aminomethyl)pyridin-2-yl]-3-(5-cyclopropyl-2-methylpyrazol-3-yl)oxybenzonitrile]: less than 10 nM.
In the case of `Cc1nc(Oc2cc(C#N)ccc2-c2ncc([C@H](O)CN)cn2)cc(N2CCCC2)n1` [compound 508, 4-[5-[(1S)-2-amino-1-hydroxyethyl]pyrimidin-2-yl]-3-(2-methyl-6-pyrrolidin-1-ylpyrimidin-4-yl)oxybenzonitrile] it was less than 10 nM; in that of `N#Cc1ccc(-c2ncc(CN)cn2)c(Oc2cnnc(NC3COC3)c2)c1` [compound 766, 4-[5-(aminomethyl)pyrimidin-2-yl]-3-[6-(oxetan-3-ylamino)pyridazin-4-yl]oxybenzonitrile], greater than 1000 nM; in that of `Cn1nc(C(F)(F)F)cc1Oc1cc(C#N)ccc1-c1ccc(CN)cn1` [compound 810, 4-[5-(aminomethyl)pyridin-2-yl]-3-[2-methyl-5-(trifluoromethyl)pyrazol-3-yl]oxybenzonitrile], less than 10 nM.
For `CC(C)CN(C)c1cc(Oc2cc(C#N)ccc2-c2ncc(CCN)cn2)n(C)n1` [compound 758, 4-[5-(2-aminoethyl)pyrimidin-2-yl]-3-[2-methyl-5-[methyl(2-methylpropyl)amino]pyrazol-3-yl]oxybenzonitrile], the IC50 was less than 10 nM.
The same measure for `N#Cc1ccc(-c2ncc(CN)cn2)c(Oc2nnc(N3CCCCC3)s2)c1` [compound 707, 4-[5-(aminomethyl)pyrimidin-2-yl]-3-[(5-piperidin-1-yl-1,3,4-thiadiazol-2-yl)oxy]benzonitrile]: 10 to 1000 nM.
`Cc1nc(Oc2cc(C#N)ccc2-c2ncc(CN)cn2)cc(N2CCC2=O)n1` [compound 882, 4-[5-(aminomethyl)pyrimidin-2-yl]-3-[2-methyl-6-(2-oxoazetidin-1-yl)pyrimidin-4-yl]oxybenzonitrile]: the IC50 was greater than 1000 nM.
In the case of `Cn1nc(C2CCOCC2)cc1Oc1cc(C#N)ccc1-c1ncc(CCN)cn1` [Compound 273, 4-[5-(2-aminoethyl)pyrimidin-2-yl]-3-[2-methyl-5-(oxan-4-yl)pyrazol-3-yl]oxybenzonitrile] it was less than 10 nM.
On to `Cn1nc(C2CC2)cc1Oc1cc(F)ccc1-c1ncc(CCN)cn1` [compound 1017, 2-[2-[2-(5-cyclopropyl-2-methylpyrazol-3-yl)oxy-4-fluorophenyl]pyrimidin-5-yl]ethanamine], for which the IC50 was less than 10 nM.
In the case of `Cn1nc(C2CC2)cc1Oc1cc(C#N)ccc1-c1cccc2c(N)nccc12` [compound 453, 4-(1-aminoisoquinolin-5-yl)-3-(5-cyclopropyl-2-methylpyrazol-3-yl)oxybenzonitrile] it was greater than 1000 nM.
In the case of `COCc1cn(Cc2cc(C#N)ccc2-c2ccc(CCN)cc2)cn1` [compound 1118, 4-[4-(2-aminoethyl)phenyl]-3-[[4-(methoxymethyl)imidazol-1-yl]methyl]benzonitrile] it was greater than 1000 nM.
In the case of `Cc1nc(Oc2cc(C#N)ccc2-c2ccc(C(C)(O)CN)cc2)cc(N2CCOCC2)n1` (stereo not drawn) [Compound 68, 4-[4-(1-amino-2-hydroxypropan-2-yl)phenyl]-3-(2-methyl-6-morpholin-4-ylpyrimidin-4-yl)oxybenzonitrile] it was 10 to 1000 nM; in that of `Cn1nc(C(C)(C)C)cc1C(O)c1cc(C#N)ccc1-c1ncc(CCN)cn1` (stereo not drawn) [compound 1235, 4-[5-(2-aminoethyl)pyrimidin-2-yl]-3-[(5-tert-butyl-2-methylpyrazol-3-yl)-hydroxymethyl]benzonitrile], 10 to 1000 nM.
On to `CCCCc1cc(Oc2cc(C#N)ccc2-c2ccc(C(O)CN)cn2)n(C)n1` (stereo not drawn) [compound 318, 4-[5-(2-amino-1-hydroxyethyl)pyridin-2-yl]-3-(5-butyl-2-methylpyrazol-3-yl)oxybenzonitrile], for which the IC50 is less than 10 nM.
As for `CN(C)c1cc(Oc2cc(F)ccc2-c2ncc(CCN)cn2)n(C)n1` [compound 999, 5-[2-[5-(2-aminoethyl)pyrimidin-2-yl]-5-fluorophenoxy]-N,N,1-trimethylpyrazole-3-amine], the IC50 was 10 to 1000 nM.
On to `N#Cc1ccc(-c2ncc(CN)cn2)c(Sc2nnc(N3CCOCC3)s2)c1` [compound 1271, 4-[5-(aminomethyl)pyrimidin-2-yl]-3-[(5-morpholin-4-yl-1,3,4-thiadiazol-2-yl)sulfanyl]benzonitrile], for which the IC50 is greater than 1000 nM.
The same measure for `Cc1nc(Oc2cc(C#N)ccc2-c2ccc(CCN)nc2)cc(-c2cccnc2)n1` [Compound 188, 4-[6-(2-aminoethyl)pyridin-3-yl]-3-(2-methyl-6-pyridin-3-ylpyrimidin-4-yl)oxybenzonitrile]: greater than 1000 nM.
The same measure for `Cc1nc(Oc2cc(C#N)ccc2-c2ncc(CN)cn2)cc(N2C[C@@H](C)O[C@@H](C)C2)n1` [compound 709, 4-[5-(aminomethyl)pyrimidin-2-yl]-3-[6-[(2R,6S)-2,6-dimethylmorpholin-4-yl]-2-methylpyrimidin-4-yl]oxybenzonitrile]: 10 to 1000 nM; for `CC(C)Cn1cc(Oc2cc(C#N)ccc2-c2ncc(CCN)cn2)cn1` [compound 907, 4-[5-(2-aminoethyl)pyrimidin-2-yl]-3-[1-(2-methylpropyl)pyrazol-4-yl]oxybenzonitrile]: less than 10 nM.
The same measure for `Cc1nc(Oc2cc(C#N)ccc2-c2ccc(CCN)cc2)cc(N2CCCCCC2)n1` [Compound 27, 4-[4-(2-aminoethyl)phenyl]-3-[6-(azepan-1-yl)-2-methylpyrimidin-4-yl]oxybenzonitrile]: 10 to 1000 nM.
Take `CCN(CC)c1cc(Cc2cc(C#N)ccc2-c2ccc(CCN)cn2)n(C)n1` [compound 1208, 4-[5-(2-aminoethyl)pyridin-2-yl]-3-[[5-(diethylamino)-2-methylpyrazol-3-yl]methyl]benzonitrile]: the IC50 is less than 10 nM.
In the case of `CCOc1cc(Oc2cc(C#N)ccc2-c2ccc([C@H](O)CN)cn2)n(C)n1` [compound 399, 4-[5-[(1S)-2-amino-1-hydroxyethyl]pyridin-2-yl]-3-(5-ethoxy-2-methylpyrazol-3-yl)oxybenzonitrile] it was less than 10 nM.
The same measure for `Cn1nc(N2CCCC2)cc1C(=O)c1cc(C#N)ccc1-c1ncc(CN)cn1` [compound 1072, 4-[5-(aminomethyl)pyrimidin-2-yl]-3-(2-methyl-5-pyrrolidin-1-ylpyrazole-3-carbonyl)benzonitrile]: less than 10 nM; for `Cn1nc(N2CCOCC2)cc1Oc1cc(C#N)ccc1-c1ccc(CCN)cn1` [compound 485, 4-[5-(2-aminoethyl)pyridin-2-yl]-3-(2-methyl-5-morpholin-4-ylpyrazol-3-yl)oxybenzonitrile]: less than 10 nM.
The same measure for `Cn1nc(-c2ccccn2)cc1Oc1cc(C#N)ccc1-c1ccc(CC(C)(C)N)cn1` [compound 338, 4-[5-(2-amino-2-methylpropyl)pyridin-2-yl]-3-(2-methyl-5-pyridin-2-ylpyrazol-3-yl)oxybenzonitrile]: less than 10 nM; for `Cc1nc(N2CCOCC2)ccc1Oc1cc(C#N)ccc1-c1ncc(CCN)cn1` [compound 921, 4-[5-(2-aminoethyl)pyrimidin-2-yl]-3-(2-methyl-6-morpholin-4-ylpyridin-3-yl)oxybenzonitrile]: greater than 1000 nM.

Values taken from patent publication US20230167073A1 (Teijin Pharma Limited, priority 2020, published 2023).
